According to ChEMBL document CHEMBL1145660, “Antimicrobial Neolignans of Sassafras randaiense Roots” (1983):
≈ marks a conversion by molar mass, not a printed value.

What was measured:
Format in all cases: functional
Saccharomyces cerevisiae = assay: Antimicrobial activity against Saccharomyces cerevisiae ATCC 9763
[1] = system: Trichophyton mentagrophytes; assay: Antimicrobial activity against Trichophyton mentagrophytes ATCC 9972
Staphylococcus aureus = assay: Antimicrobial activity against Staphylococcus aureus ATCC 6538
[2] = system: Mycolicibacterium smegmatis; assay: Antimicrobial activity against Mycobacterium smegmatis ATCC 607

## C=CCc1ccc(Oc2cc(CC=C)ccc2O)cc1 [ISOMAGNOLOL]
Saccharomyces cerevisiae
  MIC: 25 µg/mL (≈ 93.9 µM)
[1]
  MIC: 1.56 µg/mL (≈ 5.86 µM)
Staphylococcus aureus
  MIC: 3.12 µg/mL (≈ 11.7 µM)
[2]
  MIC: 1.56 µg/mL (≈ 5.86 µM)
